Data taken from patent publication US6815459B2, “Seleno compounds containing nitrone moiety, their preparation and their therapeutic uses” (Sam-Sung Electronics Co., Ltd., priority 2001, dated 2004).
pIC50: −log10 of the molar value. Converted amounts (≈) assume the structure as drawn. Where two headings read alike, the source gives them in different places.

Key:
[1] = Determination of water solubility (UV, saturated solution); type: physicochemical; conditions: 10 mM phosphate buffer (pH 7.4), stirred 3 hours, filtered; for solubility at 3 h: read-out: C′ (μM) = A′ (C/A), concentration of the saturated solution (water solubility)
Protocol: With a Beckman DUI® 7500 Spectrophotometer, the UV absorption maximum of each compound was determined by eventually diluting the solution with MeOH as necessary.
A saturated solution of each compound was then prepared by stirring magnetically a small volume of 10 mM phosphate buffer (pH 7.4) in the presence of an excess test compound for 3 hours. The obtained saturated solution was filtered in order to remove solid compound through a Gelman 0.45 m filter and scanned by UV at the wavelength of the absorption maximum previously determined.

[2] = tested on: ischemic neuronal degeneration in hippocampus; experiment: Protection of cell damage by ischemia (in vivo); parameters: species or system Mongolian gerbils (Meriones unguiculatus); conditions: for Protective effects against ischemic neuronal degeneration: gerbil, 60 mg/kg P.O. 30 minutes after ischemic injury (post-treated), 4 days reperfusion
Description: Male Mongolian gerbils (Meriones unguiculatus) weighing 80-88 g were used in the present study. […] A midline ventral incision was made in the neck. Both common carotid arteries were isolated, freed of nerve fibers, and occluded using nontraumatic aneurysm clips. Complete interruption of blood flow was confirmed by observing the central artery in eyeballs using ophthalmoscope. After five minutes of occlusion, the aneurysm clips were removed from both common carotid arteries. Restoration of blood flow (reperfusion) was observed directly under the microscope. Sham-operated controls were subjected to the same surgical procedures except that common carotid arteries were not occluded. Body temperature was monitored and maintained at 37° C.±0.5° C. during surgery and during the immediate postoperative period until the animals recovered fully from anesthesia. At the designated reperfusion time (4 days), operated animals and sham animals were killed. Animals were perfused transcardially with phosphate-buffered saline (PBS, pH 7.4) followed by 4% paraformaldehyde in 0.1 M phosphate buffer (pH 7.4) at 4 days (n=7) after surgery. The brains were removed, and postfixed in the same fixative for 4 hours. The brain tissues were cryoprotected by infiltration with 30% sucrose overnight. Cornoy fixed specimens were cut into 30 sections on a cryostat, were sequentially stained by Cresyl violet dye. Images of staining in the hippocampus of each animal were captured with an […]. […] All data obtained from the quantitative data were analyzed using one-way ANOVA to determine statistical significance. Bonferroni's test was used for post-hoc comparisons. P values below 0.05 or 0.01 were considered statistically significant.

[3] = tested on: rats; conditions: cited from earlier work
[4] = tested on: mice; conditions: oral administration; cited from earlier work
[5] = Inhibition of lipid peroxidation of liposome (TBA method); type: biochemical; conditions: histidine-FeCl3/FeCl2, 37° C., 15 minutes, read-out: Inhibitor Concentration (IC50), lipid peroxidation
Protocol: The compounds of the present invention were tested for antioxidant effect in terms of the repression of the radical chain reaction of a multilayer liposome.
The liposome was prepared as followings: 30 mg of commercially available soybean phosphatidylcholine (PC, Sigma Chemical Co., U.S.A.) was dissolved in 1 mL of ethanol, and 200 of the ethanol/PC solution was added to 10 mL of 10 mM Tris buffer including 50 mM NaCl (pH 7.0) with stirring.
The ability of a compound to inhibit oxidation of the liposome was evaluated as followings: To 400 of the liposomes were added the test compound (in buffer or ethanol) and histidine-FeCl3 (167:33 μM final). Oxidation was initiated by the addition of FeCl2 (33 μM final prepared in nitrogen purged water). The mixtures were shaken at 37° C. for 15 minutes. […]. The aliquots were heated to 100° C. for 20 minutes. After ice cooling, 1 mL of chloroform was added to 1 mL of supernatant from tubes and tubes were centrifuged. The absorbances of the resulting supernatant were measured at 532 nm (see: Table 2).

[6] = Glutathione peroxidase like activity (NADPH-glutathione reductase coupled system); type: biochemical; conditions: 50 μM compound; for Rate A340/min(30˜300 sec) / Rate/0.00622 (nmol NADPH/min/mL): 25° C.; for % Ebselen (glutathione peroxidase activity): relative to Ebselen
Protocol: Glutathione peroxidase like activity was determined by the reduction of GSSG formed via the NADPH-glutathione reductase system as an indicator system.
To 350 of 50 mM Tris-HCl(pH 7.6) containing 5 mM of EDTA (assay buffer) are added in the following order:
1) 350 of assay buffer containing 6.4 mM of reduced glutathione (GSH), 640 μM of […] (NADPH), and 1.6 unit/mL of glutathione disulfide reductase (GR)
2) 70 of 800 μM of the test compound which was dissolved in DMSO (i.e., each compound was tested at a final concentration of 50 μM)
3) 350 of 0.007% tert-butyl hydroperoxide which was made by 1/10,000 dilution of tert-butyl hydroperoxide with DDW.
The final reaction volume is 1120.
The reaction was carried out at 25° C. […] The said activity or initial enzymatic rate is proportional to the slope of the variation of absorbance with time.
The catalytic activity for oxygen reduction of the compounds tested corresponds to the rate of consumption of NADPH.
They are expressed in n-moles of NADPH consumed per minute.

[7] = tested on: rats; experiment: Acute toxicity LD50 in rats; type: in vivo

SMILES	C′ (g/L = mg/mL), concentration of the saturated solution (water solubility) [1] [g/L = mg/mL]	Protective effects against ischemic neuronal degeneration [2] [%]	pIC50 [5]	Rate A340/min(30˜300 sec) [6] [A340/min]	Rate/0.00622 (nmol NADPH/min/mL) [6] [nmol NADPH/min/mL]	% Ebselen (glutathione peroxidase activity) [6] [%]	further results
O=c1c2ccccc2[se]n1-c1ccccc1 [Ebselen, reference compound]	0.001265	59					solubility at 3 h ([1]; aqueous buffer, thermodynamic from solid): 4.62 µM (≈ 1.27 µg/mL); LD50 ([3]; intraperitoneal administration): 580 mg/kg; LD50 ([3]; oral administration): ≥ 6,810 mg/kg; LD50 [4]: ≥ 6,810 mg/kg
CC(C)/[N+]([O-])=C/c1ccc(-n2[se]c3ccccc3c2=O)cc1 [Example 1, 2-[4-(N-isopropyl)nitronyl]phenyl-1,2-benzisoselenazol-3(2H)-one]			4.09	−0.141	22.67	119.50	
CC(C)/[N+]([O-])=C\c1cccc(-n2[se]c3ccccc3c2=O)c1 [Example 2, 2-[3-(N-isopropyl)nitronyl]phenyl-1,2-benzisoselenazol-3(2H)-one]			3.95	−0.125	20.10	105.96	
CC(C)[N+]([O-])=Cc1csc(-n2[se]c3ccccc3c2=O)n1 [Example 5, 2-[4-(N-isopropyl)nitronyl]thiazol-2-yl-1,2-benzisoselenazol-3(2H)-one]	0.0414	61	5.92	−0.125	20.13	106.11	solubility at 3 h [1]: 113.029 µM (≈ 41.4 µg/mL); Neuroprotective effects compared with Ebselen ([2]; gerbil ischemia, 60 mg/kg P.O.): more neuroprotective effects against ischemic neuronal degeneration than Ebselen; LD50 ([7]; intraperitoneal administration in rats): ≥ 800 mg/kg; LD50 ([7]; oral administration in rats): ≥ 7,000 mg/kg
CC(C)/[N+]([O-])=C\c1ccc(Cn2[se]c3ccccc3c2=O)cc1 [Example 7, 2-[4-(N-isopropyl)nitronyl]benzyl-1,2-benzisoselenazol-3(2H)-one]			3.61	−0.084	13.50	71.17	
CC(C)(C)[N+]([O-])=Cc1ccccc1S(=O)(=O)O [S-PBN, reference compound]			1.60				
